# Laboratory results from patent publication US11203574B2 (BioCryst Pharmaceuticals, Inc., priority 2014, dated 2021).
# Tested on: hereditary angioedema (HAE)
# Assay: not given
# Conditions: bradykinin B2 receptor antagonist; cited from earlier work
row,SMILES,treatment of HAE
1,NC(N)=NCCC[C@@H](N)C(=O)N[C@@H](CCCN=C(N)N)C(=O)N1CCC[C@H]1C(=O)N1C[C@H](O)C[C@H]1C(=O)NCC(=O)N[C@@H](Cc1cccs1)C(=O)N[C@@H](CO)C(=O)N1Cc2ccccc2C[C@@H]1C(=O)N1[C@H](C(=O)N[C@@H](CCCN=C(N)N)C(=O)O)C[C@@H]2CCCC[C@@H]21 [Icatibant],effective in treating HAE

# Target: human plasma kallikrein (Homo sapiens (Human), UniProt P03952)
# Assay: Plasma kallikrein activity assay (chromogenic substrate S2302)
# Assay type: biochemical
# Conditions: 2 nM kallikrein, 80 μM S2302, 30° C., pH 7.8; Ki by Cheng-Prusoff equation; values given as ranges; read-out: Ki
# Chain of human plasma kallikrein (P03952 whole entry, looked up): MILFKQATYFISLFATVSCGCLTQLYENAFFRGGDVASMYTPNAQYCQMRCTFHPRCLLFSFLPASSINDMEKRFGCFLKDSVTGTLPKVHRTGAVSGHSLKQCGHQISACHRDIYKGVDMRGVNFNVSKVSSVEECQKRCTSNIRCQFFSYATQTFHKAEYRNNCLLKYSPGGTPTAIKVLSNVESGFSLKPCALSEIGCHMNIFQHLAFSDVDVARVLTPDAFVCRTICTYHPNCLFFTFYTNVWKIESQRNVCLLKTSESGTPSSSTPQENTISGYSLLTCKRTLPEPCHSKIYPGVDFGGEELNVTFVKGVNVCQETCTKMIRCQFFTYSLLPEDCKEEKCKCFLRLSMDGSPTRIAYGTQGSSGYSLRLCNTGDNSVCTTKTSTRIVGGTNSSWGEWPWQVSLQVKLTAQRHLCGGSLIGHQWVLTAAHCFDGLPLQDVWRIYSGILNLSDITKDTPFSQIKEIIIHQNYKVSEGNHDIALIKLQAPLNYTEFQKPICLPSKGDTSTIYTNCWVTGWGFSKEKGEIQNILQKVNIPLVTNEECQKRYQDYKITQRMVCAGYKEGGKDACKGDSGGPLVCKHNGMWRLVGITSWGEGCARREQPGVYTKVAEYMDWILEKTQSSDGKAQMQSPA
# Chain of human plasma kallikrein (P03952 whole entry partner, looked up): as the sequence (P03952 whole entry, looked up) above
row,SMILES,Ki [nM]
1,"NCc1cccc(-n2nc(C(F)(F)F)cc2C(=O)Nc2cc(C(CCC3CC3)n3ccncc3=O)ccc2F)c1 (stereo not drawn) [249b, 1-(3-(aminomethyl)phenyl)-N-(5-(3-cyclopropyl-1-(2-oxopyrazin-1(2H)-yl)propyl)-2-fluorophenyl)-3-(trifluoromethyl)-1H-pyrazole-5-carboxamide]",0.1 to 50
2,"CN1CCCN(C(CCC2CC2)c2ccc(F)c(NC(=O)c3cc(C(F)(F)F)nn3-c3cccc(CN)c3)c2)CC1 (stereo not drawn) [251e, 1-(3-(aminomethyl)phenyl)-N-(5-(3-cyclopropyl-1-(4-methyl-1,4-diazepan-1-yl)propyl)-2-fluorophenyl)-3-(trifluoromethyl)-1H-pyrazole-5-carboxamide]",50 to 100
3,"NCc1cccc(-n2nc(C(F)(F)F)cc2C(=O)Nc2cc(C(=CCC3CC3)c3ccccc3)ccc2F)c1 [252c, 1-(3-(aminomethyl)phenyl)-N-(5-(3-cyclopropyl-1-phenylprop-1-enyl)-2-fluorophenyl)-3-(trifluoromethyl)-1H-pyrazole-5-carboxamide]",0.1 to 50
4,"Nc1nccc2ccc(-n3nc(C(F)(F)F)cc3C(=O)Nc3cc(C(CCC4CC4)n4ccccc4=O)ccc3F)cc12 (stereo not drawn) [258g, 1-(1-aminoisoquinolin-7-yl)-N-(5-(3-cyclopropyl-1-(2-oxopyridin-1(2H)-yl)propyl)-2-fluorophenyl)-3-(trifluoromethyl)-1H-pyrazole-5-carboxamide]",0.1 to 50
5,"Nc1nccc2ccc(-n3nc(C(F)(F)F)cc3C(=O)Nc3cc(C(CCC4CC4)n4ccncc4=O)ccc3F)cc12 (stereo not drawn) [259d, 1-(1-aminoisoquinolin-7-yl)-N-(5-(3-cyclopropyl-1-(2-oxopyrazin-1(2H)-yl)propyl)-2-fluorophenyl)-3-(trifluoromethyl)-1H-pyrazole-5-carboxamide]",0.1 to 50
6,"NCc1cccc(-n2nc(C(F)(F)F)cc2C(=O)Nc2cc(C(CCC3CC3)N3C(=O)CCC3=O)ccc2F)c1 (stereo not drawn) [260b, 1-(3-(aminomethyl)phenyl)-N-(5-(3-cyclopropyl-1-(2,5-dioxopyrrolidin-1-yl)propyl)-2-fluorophenyl)-3-(trifluoromethyl)-1H-pyrazole-5-carboxamide]",0.1 to 50
7,"NCc1cccc(-n2nc(C(F)(F)F)cc2C(=O)Nc2cc(C(CCC3CC3)n3ccc(=O)[nH]c3=O)ccc2F)c1 (stereo not drawn) [263d, 1-(3-(aminomethyl)phenyl)-N-(5-(3-cyclopropyl-1-(2,4-dioxo-3,4-dihydropyrimidin-1(2H)-yl)propyl)-2-fluorophenyl)-3-(trifluoromethyl)-1H-pyrazole-5-carboxamide]",0.1 to 50
8,"Nc1nccc2ccc(-n3nc(C(F)(F)F)cc3C(=O)Nc3cc(C(CCC4CC4)n4ccc(=O)[nH]c4=O)ccc3F)cc12 (stereo not drawn) [269b, 1-(1-aminoisoquinolin-7-yl)-N-(5-(3-cyclopropyl-1-(2,4-dioxo-3,4-dihydropyrimidin-1(2H)-yl)propyl)-2-fluorophenyl)-3-(trifluoromethyl)-1H-pyrazole-5-carboxamide]",0.1 to 50
